Laboratory results: patent US20150196507A1, “CONTROL OF MILK PRODUCTION AND MAMMARY INVOLUTION” (Amelgo, LLC, priority 2009, published 2015)

Tests used:
[1] = tested on: primary human breast epithelial cells; assay: TEER of human mammary cultures; assay type: cell-based; conditions: for TEER change (FIG. 3): combination read at 36 hours
Excerpt: FIG. 3 is a graphic illustration of a similar experiment performed on mammary gland cultures biopsied from primary human breast epithelial cells.

[2] = tested on: cultures of mammary tissues taken from a lactating mouse; assay: Trans-epithelial electrical resistance (TEER) of mouse mammary tissue cultures; assay type: cell-based; design: dose or concentration left out as unconfirmed; conditions: fluoxetine, measured at 48 hours
[3] = tested on: multiparous Holstein cows; assay: Intramammary infusion at dry-off in Holstein cows (milk yield, milk composition, plasma lactose); assay type: in vivo, cow; conditions: for milk yield decline: day one following initiation of treatments, 5 mg in 5 ml carrier per quarter, control down 7.5 kg; for drop in amount of milk versus cows not receiving any infusion: after the first of three daily infusions, FIG. 6
Description: In a set of experiments, forty-five multiparous Holstein cows milked three times daily and producing at least 20 kg/day were randomly assigned to once a day milking and one of three intramammary treatments in each quarter for three days. A control group of fifteen cows received 5 ml of a carrier of 9:1 sterile water and oil via infusion. […] The third group of fifteen cows received a treatment of 5 ml the carrier containing 5 mg of the precursor for serotonin synthesis (5-HTP) via infusion.
The milk yield decline was greater for the second group (down 9.5 kg) and the third group (down 10.0 kg) than that of the first group (down 7.5 kg) on day one following the initiation of treatments (P<0.01).
The amount of milk dropped close to 10% for those cows receiving an infusion of 5-HTP versus cows not receiving any infusion.
Milk lactose, protein, and fat percentage were not affected by treatments, but the milk sodium to potassium ratio increased to 2.8 in the second group on day two as compared to 1.44 in the first group and 1.78 in the third group, (P<0.01).

SMILES: NNCCc1ccccc1 [phenelzine]
- TEER change (FIG. 3) [1]: caused a decrease
- TEER change (FIG. 2) [2]: small but significant increase in TEER

SMILES: N[C@@H](Cc1c[nH]c2ccc(O)cc12)C(=O)O [5-HTP, 5-hydroxytryptophan]
- milk yield decline ([3]; P<0.01): 10.0 kg
- drop in amount of milk versus cows not receiving any infusion ([3]; day two): ~10%
- milk sodium to potassium ratio ([3]; day two, first (control) group 1.44, P<0.01): 1.78

SMILES: CNCCC(Oc1ccc(C(F)(F)F)cc1)c1ccccc1 (centres unmarked) [fluoxetine]
- plasma lactose increase compared to the other two groups ([3]; day 1 post-infusion, P<0.001): increased two-fold
- milk yield decline ([3]; P<0.01): 9.5 kg
- drop in amount of milk versus cows not receiving any infusion ([3]; day two): ~31%
- TEER change (FIG. 3) [1]: did not change TEER

SMILES: CCN[C@@H](C)Cc1cccc(C(F)(F)F)c1 [dexfenfluramine]
- reduction in TEER ([1]; FIG. 3): 50%
- TEER change (FIG. 2) [2]: decrease in TEER similar to that of the combination of phenelzine and fluoxetine
